The subject of the test is CD13 expressed in HUVEC. Put plainly: Inhibition of cell-associated CD13 enzymatic activity, HUVEC. Type of test: cell-based, human. Particulars: 3 × 10^5 cells/well, L-alanine p-nitroanilide, 30 min, 37 °C, absorbance 405 nm. Here is the method: Fig. 5 Quantification of CD13 expressed by HL-60 and HUVEC by western blotting and FACS analyses, and determination of their enzymatic activity. A Western blotting (WB) analysis of CD13 expression in HL-60 cells and HUVEC. For both cell lines, 2 µg of cell lysates were loaded in each well (n = 4–5 replicates, as indicated). After blotting, the membrane was cut and analyzed for CD13 and actin expression as described in Material and methods. The results of one representative experiment, out of three independent experiments performed, are shown (bars, ratio of CD13/actin band intensity, mean ± SEM). Recombinant human CD13 (rCD13) (20 ng) was loaded as positive control. MW, molecular weight markers. B FACS analysis of CD13 expression in HUVEC and HL-60 cells. The cells were incubated with mAb WM15 (10 μg/mL) and stained with a FITC-labeled goat anti-mouse IgG (H + L) secondary antibody. Data were expressed as fluorescence intensity and normalized to the number of cells. The cumulative results of three independent experiments are shown (each performed in duplicate; mean ± SEM). C Enzyme activity assay of CD13 expressed in HUVEC and HL-60 cells. […] Absorbance at 405 nm was measured using a plate reader. The enzyme units in each sample were calculated using rCD13 as a standard and were normalized to the number of cells. […] The absorbance was measured at 405 nm using a plate reader. […]

We go through one substance from paper PMC10827914 (Cellular and Molecular Life Sciences: CMLS, 2024).

“VGCARRYCS-TNF [G4-TNF, recombinant murine TNF fused to the C-terminus of G4]”: the “Inhibition of CD13 enzymatic activity associated with HUVEC (in words)” value is reported as “did not inhibit”.
